Measurements from patent publication US20130196935A1, “SYNTHETIC GLYCOAMINE COMPOUNDS” (ANIMAL CELL THERAPIES INC., priority 2012, published 2013).
Several values for one entry are separate records, joined by “and”; a condition that tells them apart may be missing. Equal values may be shown once.

Experiments:
SVR cells [1] = assay: Clonogenic survival (colony formation) of SVR cells; assay type: cell-based; settings: for Colony # (single well): 200 SVR cells per well; for Colony # Average: average of 4 wells; for inhibition of colony formation compared to the control: two-tailed t-test; for inhibition of SVR cell colony formation: concentrations 1 mM and higher, compared to control
Method: 1. Testing concentrations of ACT-1 and ACT-2: 1 mM, 500 μM, 250 μM, 125 μM, and 62.5 μM. 2. Prepared 2 mM ACT-1=0.91 mg/mL and 2 mM ACT-2=0.91 mg/mL in SVR complete culture medium. Sterilized the test article solutions by filtering through 0.2 μm syringe filters (Whatman Puradisc 25 mm, Cat #6780-2502). 3. Prepared solutions in 2× testing concentrations (2 mM, 1 mM, 500 μM, 250 μM, 125 μM and 62.5 μM) by preparing 2× dilution from 2 mM stock solution (mixing 2.4 mL culture medium with 2.4 mL of 2 mM solution, and make serial 2× dilutions the same way). 4. Pipetted 0.5 mL of test articles to 24-well plates according to the layout below (ACT-1 in one plate and ACT-2 in another plate). Each concentration will be tested in quadruplicate.
5. Trypsinized SVR cells (P1) and prepared 400 cells/mL solution in culture medium. Pipetted 0.5 mL cell solution to each well (200 cells/well). Mixed well by gentle pipetting. 6. Cultured cells at 37° C. incubator for 6 days. 7. Aspirated medium from the wells. Rinsed cells once with 1 mL of PBS (LONZA, Cat #: 17-516Q). 8. Fixed cells with 0.5 mL of freshly prepared 4% paraformaldehyde (PFA) (1:8 dilution of 32% PFA solution in PBS; 32% PFA solution: Electron Microscopy Sciences Cat #:15714) in PBS at RT for 20 min. Removed PFA and washed cells once with 1 mL PBS. 9. Stained cells with 0.3 mL of Mayer's hematoxylin solution (Sigma Cat#: MHS1-100ML) at RT for 15 min. Removed hematoxylin solution and rinsed cells twice with 1 mL of warm tap water. 10. Counted cell colonies under microscope with 40× magnification (divide the wells with makers into 4 sections. Count the numbers of colonies from each section and add the numbers to yield the final colony numbers).
1. Testing concentrations of ACT-1 and ACT-2: 4 mM, 2 mM, 1 mM, and 0.5 mM. 2. The experimental procedures were the same as in Experiment 1-1, except that the total volume in each well was 0.6 mL (0.3 mL of 2× concentrated test articles and 0.3 mL of 667 cells/mL cell solution).
3. Cultured cells at 37° C. incubator for 6 days. 4. Visualized the cell colonies by staining with hematoxylin as described above. 5. Counted the colonies under microscope.

[2] = MTS cytotoxicity assay on SVR cells; assay type: cell-based; settings: mouse, SVR cells, 48 hours, MTS, read-out: Viability of SVR cells compared to control, Ave (%)
Method: (§1) 1. Testing concentrations of ACT-1 and ACT-2: 8 mM, 4 mM, 2 mM, 1 mM, 0.5 mM, 0.25 mM and 0.125 mM. 2. Trypsinized exponentially growing BAECs (P1) and SVR cells (P4), and prepared 5×10^4 cells/mL cell solution for BAECs and […] for SVR cells. Add 100 μl of cell solution to 96-well plates to achieve 5,000 cells/well for BAECs and 1,000 cells/well for SVR cells. Incubated cells at 37° C. overnight. 3. Prepared 8 mM=3.64 mg/mL and 8 mM ACT-2=3.62 mg/mL in BAEC complete culture medium. Sterilized the drug solutions by filtering through 0.2 μm syringe filters. 4. Prepared 2× serial dilutions from 8 mM stock solution by mixing 0.6 mL drug solution with 0.6 mL culture medium. 5. Aspirated medium from wells and added 80 μl of test article solutions to the wells according to the layout below.
(§2) 6. Incubated cells at 37° C. for 48 hours. 7. Aspirated the medium from wells and added fresh 70 μl culture medium to the wells. 8. Prepared MTS reagent (Promega CellTiter 96 Aqueous MTS assay reagents, Cat #G5421) by mixing 2.4 mL MTS, 120 μl PMS and 3.779 mL culture medium. Added 50 μl MTS assay reagent to the wells using a multiple channel pipette. 9. Incubate at 37° C. for 2 hours. Read absorbance at 490 nm using a plate reader.

SVR cells [3] = assay: MTS cytotoxicity assay on SVR cells; assay type: cell-based; settings: for significance level P, cytotoxic effect on SVR cells compared to the control: 8 mM, two-tailed t-test; for cytotoxic effect on SVR cells: only at 8 mM, 48 hours, MTS
Method: as §1, §2

[4] = MTS cytotoxicity assay on primary BAEC; assay type: cell-based, bovine; settings: bovine, primary bovine aortic endothelial cells (BAEC), read-out: Viability of BAEC cells compared to control, Ave (%)
Method: as §1, §2

[5] = test system: primary bovine aortic endothelial cells (BAEC); assay: MTS cytotoxicity assay on primary BAEC; assay type: cell-based; settings: 0.125-8 mM, 48 hours
Method: as §1, §2

SVR cells [6] = assay: TUNEL assay, apoptosis induction of SVR cells; assay type: cell-based; settings: 2 mM, 24 hours
Method: 1. Testing concentrations of ACT-1 and ACT-2: 2 mM. 2. Prepared 4 mM ACT-1=1.82 mg/mL and 4 mM ACT-2=1.81 mg/mL in complete culture medium. Sterilized the drug solutions by filtering through 0.2 μm syringe filters. 3. Added 100 μl of test articles or culture medium to 4 wells for each ACT-1 and ACT-2 in a 96-well plate. Added 100 μl of culture medium to 5 wells (for non-treated and DNase treatment controls). 4. Trypsinized SVR cells (P3) and prepared 5×10^3 cells/mL solution in culture medium. Added 100 μl of cell solution to each well (500 cells/well). Mixed well by gentle pipetting. 5. Incubated at 37° C. for 24 hours. 6. Removed medium and added 100 μl of 4% PFA in PBS to the wells. Incubated at room temperature for 15 min. 7. Removed PFA solution and 100 μl of permeabilization reagent (0.25% Triton X-100 in PBS) (Triton X-100: Sigma Cat #: T8787-100ML). Incubated at room temperature for 20 min. Washed twice with deionized water. 8. TUNEL reaction was then carried out exactly as the protocol provided by the kit (Invitrogen Click-iT TUNEL Alexa Fluor Imaging Assay Kit, Cat #: C10245). Treated one well (culture medium control) with DNase as positive control for the TUNEL reaction. The reaction volume for each well was 50 μl. 9. After TdT and Click-iT reactions, DNA was stained with Hoechst 33342 (provided by the kit) 1:5,000 in PBS at RT for 15 min. Washed wells three times with PBS. 10. […]

[7] = Experiment A, 62.5 μM, six days after treatment
[8] = Experiment A, 62.5 μM, six days
[9] = Experiment A, 125 μM, six days after treatment
[10] = Experiment A, 250 μM, six days after treatment
[11] = Experiment A, 500 μM, six days after treatment
[12] = Experiment A, 1000 μM, six days after treatment
[13] = Experiment A, 1000 μM, six days
[14] = Experiment B (higher concentrations), 0.5 mM, six days
[15] = Experiment B (higher concentrations), 1 mM, six days
[16] = Experiment B (higher concentrations), 2 mM, six days
[17] = Experiment B (higher concentrations), 4 mM, six days

Row | SMILES | Colony # (single well) (SVR cells [1]; [7]) | Colony # Average (SVR cells [1]; [8]) | Colony # (single well) (SVR cells [1]; [9]) | Colony # Average (SVR cells [1]; Experiment A, 125 μM, six days) | Colony # (single well) (SVR cells [1]; [10]) | Colony # Average (SVR cells [1]; Experiment A, 250 μM, six days) | Colony # (single well) (SVR cells [1]; [11]) | Colony # Average (SVR cells [1]; Experiment A, 500 μM, six days) | Colony # (single well) (SVR cells [1]; [12]) | Colony # Average (SVR cells [1]; [13]) | Colony # (single well) (SVR cells [1]; [14]) | Colony # (single well) (SVR cells [1]; [15]) | Colony # (single well) (SVR cells [1]; [16]) | Colony # (single well) (SVR cells [1]; [17]) | Colony # Average (SVR cells [1]; Experiment B, 0.5 mM, six days) | Colony # Average (SVR cells [1]; Experiment B, 1 mM, six days) | Colony # Average (SVR cells [1]; Experiment B, 2 mM, six days) | Colony # Average (SVR cells [1]; Experiment B, 4 mM, six days) | inhibition of SVR cell colony formation (SVR cells [1]; Experiment B) | viability at 48 h, 0.125 mM [2] | other results
1 | CC(C)CC(NC[C@@]1(O)OC[C@@H](O)[C@@H](O[C@@H]2O[C@H](CO)[C@H](O)[C@H](O)[C@H]2O)[C@@H]1O)C(=O)O (stereo in doubt) [ACT-1] | 43 and 42 and 41 and 39 | 41.3 | 44 and 41 and 39 | 40.8 | 43 and 40 and 41 and 34 | 39.5 | 42 and 41 and 33 | 39.3 | 34 and 32 | 33.0 | 40 and 45 and 35 | 38 and 32 and 33 and 34 | 1 and 2 | 0 | 40.0 | 34.3 | 1.8 | 0.0 | inhibited SVR cell colony formation | 97.4% | inhibition of colony formation compared to the control (SVR cells [1]; Experiment A, 1 mM): significant inhibition of colony formation; viability at 48 h, 0.25 mM [2]: 99.7%; viability at 48 h, 0.5 mM [2]: 100%; viability at 48 h, 1 mM [2]: 97.7%; viability at 48 h, 2 mM [2]: 95.8%; viability at 48 h, 4 mM [2]: 93.1%; viability at 48 h, 8 mM [2]: 71.2%; significance level P, cytotoxic effect on SVR cells compared to the control (SVR cells [3]): 0.016; cytotoxic effect on SVR cells (SVR cells [3]): significant cytotoxic effect; viability at 48 h, 0.125 mM [4]: 104%; viability at 48 h, 0.25 mM [4]: 112%; viability at 48 h, 0.5 mM [4]: 118%; viability at 48 h, 1 mM [4]: 126%; viability at 48 h, 2 mM [4]: 122%; viability at 48 h, 4 mM [4]: 112%; viability at 48 h, 8 mM [4]: 99.4%; cytotoxic effect on primary BAECs [5]: did not show significant cytotoxic effect; TUNEL nuclear staining (apoptosis induction) (SVR cells [6]): nuclear staining was not observed
2 | O=C(O)[C@H](CC1CC1)NC[C@@]1(O)OC[C@@H](O)[C@@H](O[C@@H]2O[C@H](CO)[C@H](O)[C@H](O)[C@H]2O)[C@@H]1O [ACT-2] | 49 and 51 and 43 and 48 | 47.8 | 44 and 42 and 39 | 41.8 | 50 and 44 and 39 and 37 | 42.5 | 39 and 31 and 33 and 35 | 34.5 | 33 and 36 and 39 and 28 | 34.0 | 38 and 34 and 40 and 31 | 13 and 23 and 19 and 16 | 0 | 0 | 35.8 | 17.8 | 0.0 | 0.0 | inhibited SVR cell colony formation | 98.2% | inhibition of colony formation compared to the control (SVR cells [1]; Experiment A, 0.5 mM): significant inhibition of colony formation; viability at 48 h, 0.25 mM [2]: 105%; viability at 48 h, 0.5 mM [2]: 98.7%; viability at 48 h, 1 mM [2]: 92.5%; viability at 48 h, 2 mM [2]: 95.1%; viability at 48 h, 4 mM [2]: 87.8%; viability at 48 h, 8 mM [2]: 76.1%; significance level P, cytotoxic effect on SVR cells compared to the control (SVR cells [3]): 0.018; cytotoxic effect on SVR cells (SVR cells [3]): significant cytotoxic effect; viability at 48 h, 0.125 mM [4]: 107%; viability at 48 h, 0.25 mM [4]: 133%; viability at 48 h, 0.5 mM [4]: 136%; viability at 48 h, 1 mM [4]: 132%; viability at 48 h, 2 mM [4]: 133%; viability at 48 h, 4 mM [4]: 118%; viability at 48 h, 8 mM [4]: 106%; cytotoxic effect on primary BAECs [5]: did not show significant cytotoxic effect; TUNEL nuclear staining (apoptosis induction) (SVR cells [6]): nuclear staining was not observed
